Key:
[1] = In vivo PK in CD-1 mice, plasma and brain by LC-MS/MS; conditions: for Mean concentration in brain: ± SD, n=3; for AUC(0-inf): AUCInf
Experimental: Initial in vivo PK studies to confirm oral bioavailability and brain exposure were conducted at Pharmaron (Beijing, China) in non‐fasted male CD‐1 mice (6–8 weeks of age; sourced from Vital River). […] The dose volume was 10 mL/kg.
Next, we evaluated brain and plasma PK of 10 mg/kg (1 hour pre, IP, n = 3). Experiments then were conducted to confirm and extend initial PK data and evaluate brain and plasma levels at doses of 1, 10, and 100 mg/kg after oral administration at 1, 3, and 8 hours post dose (n = 3 per dose per timepoint).
Serial blood was collected via the dorsal metatarsal vein into ethylenediaminetetraacetic acid‐K2 coated tubes and centrifuged at 4°C x 4000 g for 5 minutes to obtain plasma that was aliquoted and stored at −80°C until analysis. For terminal studies, blood was collected via cardiac puncture under isoflurane anesthesia. Whole brain was homogenized at a ratio of 1:3 with PBS (W:V, 1:3).
For sample analysis liquid chromatography tandem mass spectrometry (LC‐MS/MS) was conducted using an AB Sciex Triple Quad 5500 LC/MS/MS instrument. Briefly, the desired serial concentrations of working solutions were achieved by diluting stock solution of analyte with 50% acetonitrile in water solution. Ten µL of working solutions (0.5, 1, 2, 5, 10, 50, 100, 500, and 1000 ng/mL) were added to 10 µL of the blank CD1 mouse plasma/brain homogenate to achieve calibration standards of 0.5 to 1000 ng/mL (0.5, 1, 2, 5, 10, 50, 100, 500, and 1000 ng/mL) in a total volume of 20 µL. Five quality control (QC) samples at 1 ng/mL, 2 ng/mL, 5 ng/mL, 50 ng/mL, and 800 ng/mL for plasma/brain homogenate were prepared independently of those used for the calibration curves. These QC samples were prepared on the day of analysis in the same way as calibration standards. Twenty µL standards, 20 µL QC samples, and 20 µL unknown samples (10 µL plasma/brain homogenate with 10 µL blank solution) were added to 200 µL of acetonitrile containing internal standard (IS) mixture for precipitating protein, respectively. The samples were vortexed for 30 seconds followed by centrifugation at 4°C x 2600 g for 15 minutes. The supernatant was diluted at a ratio of 1:2 with H2O (V/V, 1:2), 5 µL of diluted supernatant was injected into the LC‐MS/MS system for quantitative analysis. The lower limit of quantification (LLOQ) was 0.5 ng/mL for plasma and 1 ng/mL for brain. PK parameters were estimated by non‐compartmental model analysis using WinNonlin 8.3.

[2] = system: dendritic spines, layer V of somatosensory cortex; assay: Golgi staining, dendritic spine density in somatosensory cortex of 5xFAD mice; format: in vivo
Experimental: Drug concentrations were prepared immediately before dosing each day. […] The right hemisphere was subjected to Golgi staining as described previously[29] to assess dendrite morphology and dendritic spine density. Briefly, frozen mice brains were rapidly immersed in a modified Golgi-Cox staining solution (developed and provided by […] Jing and Francis Lee, Cornell University) for 9 days at room temperature in the dark. The brains were then incubated in 30% sucrose in dH2O at 4°C for 72 hours, with the solution refreshed after the first 12 hours. Next, 150 μm sections were prepared using a vibratome and mounted onto slides coated with 0.3% gelatin. After a brief drying period, slides were dipped three times in 40% sucrose and air dried for 72 hours in the dark. After dH2O washes, sections were developed using a staining solution, rinsed again, dehydrated through a graded ethanol series, cleared in xylene, and cover slipped with DPX mounting medium. Brain sections stained using the Golgi-Cox method were imaged with a Zeiss brightfield microscope equipped with the Neurolucida software (MBF Biosciences). The Neurolucida software was used to acquire neuron pictures, trace neuronal dendrites, and quantify dendritic spine density. […] After a neuron was selected, the 100 × oil immersion objective was used to perform real time dendritic tracing using Neurolucida's live mode. The soma was outlined using the “cell body” option followed by manual tracing of apical and basal dendrites using the respective “dendrite tracing” options. After the tracing was finished, spines were manually marked along the dendrites. A.DAT file was saved for each neuron post completion of dendrite and spine tracing and imported into Neurolucida Explorer, which is used to perform quantitative structural analysis and dendrite length and number of spines data for each neuron is exported. The spine density is calculated by dividing number of spines/dendrite length separately for apical and basal dendrites for each neuron.

[3] = male, CD-1, mouse, brain, oral, 10 mg/kg
[4] = male, CD-1, mouse, brain, oral, 100 mg/kg
[5] = male, CD-1, mouse, brain, po, 10 mg/kg, 10 mg/kg PO
[6] = male, CD-1, mouse, brain, po, 100 mg/kg, 100 mg/kg PO
[7] = male, CD-1, mouse, plasma, ip, 10 mg/kg, 10 mg/kg IP, sampling 0.5, 1, 3, 5 h
[8] = male, CD-1, mouse, plasma, po, 1 mg/kg, 1 mg/kg PO
[9] = male, CD-1, mouse, plasma, po, 10 mg/kg, 10 mg/kg PO, sampling 0.5, 1, 3, 5 h
[10] = male, CD-1, mouse, plasma, po, 10 mg/kg, 10 mg/kg PO, sampling 1, 3, 8 h
[11] = male, CD-1, mouse, plasma, po, 100 mg/kg, 100 mg/kg PO
[12] = plasma, 10 mg/kg IP, sampling 0.5, 1, 3, 5 h
[13] = plasma, 10 mg/kg PO, sampling 0.5, 1, 3, 5 h
[14] = plasma, 10 mg/kg PO, sampling 1, 3, 8 h
[15] = young male 5xFAD, 100 mg/kg BID PO 12 weeks

SMILES: CC(C)NC(=O)N1CC[C@H](NC2=Nc3cc(F)ccc3N(CC(F)F)c3ccc(Cl)cc32)C1 [NVS‐PAK1‐1, (S)‐3‐([2‐chloro‐5‐(2,2‐difluoroethyl)‐8‐fluoro‐5H‐dibenzo[b,e][1,4]diazepin‐11‐yl]amino)‐N‐isopropylpyrrolidine‐1‐carboxamide]
- Mean concentration in brain ([1]; 1 mg/kg PO, 1 h post dose): BLOQ
- Mean concentration in brain ([1]; 1 mg/kg PO, 3 h post dose): BLOQ
- Mean concentration in brain ([1]; 1 mg/kg PO, 8 h post dose): BLOQ
- concentration in brain ([1]; 1 mg/kg PO, at 1, 3 and 8 hours post dose): < 1 ng/mL
- Mean concentration in brain ([1]; 10 mg/kg PO, 8 h post dose): BLOQ
- Mean concentration in brain ([1]; 100 mg/kg PO, 8 h post dose): detectable
- AUC_%Extrap_obs ([1]; brain, 10 mg/kg PO): 15.3%
- AUClast/D ([1]; brain, 10 mg/kg PO): 5.74 h·ng/mL per mg/kg
- AUC_%Extrap_obs ([1]; brain, 100 mg/kg PO): 1.34%
- AUClast/D ([1]; brain, 100 mg/kg PO): 13.8 h·ng/mL per mg/kg
- concentration at 1 h ([1]; male, CD-1, mouse, brain, intraperitoneal, 10 mg/kg): 112 ± 14 ng/g
- concentration at 1 h [1, 3]: 33.2 ± 13 ng/g
- concentration at 3 h [1, 3]: 7.62 ± 1.16 ng/g
- concentration at 1 h [1, 4]: 759 ± 379 ng/g
- concentration at 3 h [1, 4]: 61.6 ± 3.5 ng/g
- concentration at 8 h [1, 4]: 14.3 ± 5.4 ng/g
- AUC(0-inf) [1, 5]: 67.8 ng·h/mL
- AUC(0-t) ([1]; male, CD-1, mouse, brain, po, 10 mg/kg, AUClast, 10 mg/kg PO): 57.4 ng·h/mL
- Cmax [1, 5]: 33.2 ng/mL
- MRT inf ([1]; male, CD-1, mouse, brain, po, 10 mg/kg, MRTInf_obs, 10 mg/kg PO): 1.74 h
- half-life ([1]; male, CD-1, mouse, brain, po, 10 mg/kg, T1/2, brain, 10 mg/kg PO): 0.942 h
- Tmax [1, 5]: 1 h
- AUC(0-inf) [1, 6]: 1400 ng·h/mL
- AUC(0-t) ([1]; male, CD-1, mouse, brain, po, 100 mg/kg, AUClast, 100 mg/kg PO): 1380 ng·h/mL
- Cmax [1, 6]: 759 ng/mL
- half-life ([1]; male, CD-1, mouse, brain, po, 100 mg/kg, T1/2, brain, 100 mg/kg PO): 1.23 h
- Tmax [1, 6]: 1 h
- Kp at 1 h ([1]; male, CD-1, mouse, brain/plasma, ip, 10 mg/kg): 0.25
- Kp ([1]; male, CD-1, mouse, brain/plasma, po, 10 mg/kg): 0.21
- Kp ([1]; male, CD-1, mouse, brain/plasma, po, 100 mg/kg): 0.302
- AUC(0-t) ([1]; male, CD-1, mouse, in vivo, po, 1 mg/kg): 27.2 ng·h/mL
- MRT inf ([1]; male, CD-1, mouse, in vivo, po, 100 mg/kg): 1.56 h
- concentration at 1 h ([1]; male, CD-1, mouse, plasma, intraperitoneal, 10 mg/kg): 448 ± 65 ng/mL
- AUC(0-inf) [1, 7]: 1170 ng·h/mL
- AUC(0-t) ([1]; male, CD-1, mouse, plasma, ip, 10 mg/kg, AUClast, 10 mg/kg IP, sampling 0.5, 1, 3, 5 h): 1150 ng·h/mL
- Cmax [1, 7]: 878 ng/mL
- MRT inf ([1]; male, CD-1, mouse, plasma, ip, 10 mg/kg, MRTInf_obs, 10 mg/kg IP, sampling 0.5, 1, 3, 5 h): 1.1 h
- half-life ([1]; male, CD-1, mouse, plasma, ip, 10 mg/kg, T1/2, plasma, 10 mg/kg IP, sampling 0.5, 1, 3, 5 h): 0.814 h
- Tmax [1, 7]: 0.5 h
- AUC(0-inf) [1, 8]: 31.6 ng·h/mL
- Cmax [1, 8]: 8.1 ng/mL
- MRT inf ([1]; male, CD-1, mouse, plasma, po, 1 mg/kg, MRTInf_obs, 1 mg/kg PO): 3.92 h
- half-life ([1]; male, CD-1, mouse, plasma, po, 1 mg/kg, T1/2, plasma, 1 mg/kg PO): 2.62 h
- Tmax [1, 8]: 1 h
- AUC(0-inf) [1, 9]: 252 ng·h/mL
- AUC(0-inf) [1, 10]: 280 ng·h/mL
- AUC(0-t) ([1]; male, CD-1, mouse, plasma, po, 10 mg/kg, AUClast, 10 mg/kg PO, sampling 0.5, 1, 3, 5 h): 223 ng·h/mL
- AUC(0-t) ([1]; male, CD-1, mouse, plasma, po, 10 mg/kg, AUClast, 10 mg/kg PO, sampling 1, 3, 8 h): 274 ng·h/mL
- Cmax [1, 9]: 130 ng/mL
- Cmax [1, 10]: 112 ng/mL
- MRT inf ([1]; male, CD-1, mouse, plasma, po, 10 mg/kg, MRTInf_obs, 10 mg/kg PO, sampling 0.5, 1, 3, 5 h): 2.19 h
- MRT inf ([1]; male, CD-1, mouse, plasma, po, 10 mg/kg, MRTInf_obs, 10 mg/kg PO, sampling 1, 3, 8 h): 2.1 h
- half-life ([1]; male, CD-1, mouse, plasma, po, 10 mg/kg, T1/2, plasma, 10 mg/kg PO, sampling 0.5, 1, 3, 5 h): 1.56 h
- half-life ([1]; male, CD-1, mouse, plasma, po, 10 mg/kg, T1/2, plasma, 10 mg/kg PO, sampling 1, 3, 8 h): 1.4 h
- Tmax [1, 9]: 0.5 h
- Tmax [1, 10]: 1 h
- AUC(0-inf) [1, 11]: 4720 ng·h/mL
- AUC(0-t) ([1]; male, CD-1, mouse, plasma, po, 100 mg/kg, AUClast, 100 mg/kg PO): 4570 ng·h/mL
- Cmax [1, 11]: 2330 ng/mL
- MRT inf ([1]; male, CD-1, mouse, plasma, po, 100 mg/kg, MRTInf_obs, 100 mg/kg PO): 1.91 h
- half-life ([1]; male, CD-1, mouse, plasma, po, 100 mg/kg, T1/2, plasma, 100 mg/kg PO): 1.5 h
- Tmax [1, 11]: 1 h
- AUC_%Extrap_obs ([1]; plasma, 1 mg/kg PO): 14.0%
- AUClast/D ([1]; plasma, 1 mg/kg PO): 27.2 h·ng/mL per mg/kg
- AUC_%Extrap_obs [1, 12]: 1.62%
- AUClast/D [1, 12]: 115 h·ng/mL per mg/kg
- AUC_%Extrap_obs [1, 13]: 11.3%
- AUClast/D [1, 13]: 22.3 h·ng/mL per mg/kg
- AUC_%Extrap_obs [1, 14]: 2.29%
- AUClast/D [1, 14]: 27.4 h·ng/mL per mg/kg
- AUC_%Extrap_obs ([1]; plasma, 100 mg/kg PO): 3.08%
- AUClast/D ([1]; plasma, 100 mg/kg PO): 45.7 h·ng/mL per mg/kg
- apical dendritic spine density, somatosensory cortex ([2]; female 5xFAD, 100 mg/kg BID PO 12 weeks from 3 to 6 months of age, P < 0.01): prevented the loss
- basal dendritic spine density, somatosensory cortex ([2]; female 5xFAD, 100 mg/kg BID PO 12 weeks from 3 to 6 months of age, P < 0.05): prevented the loss
- apical spine density, somatosensory cortex [2, 15]: no significant difference
- basal spine density, somatosensory cortex [2, 15]: no significant difference
